The source of these data is patent US20030186345A1, “Macromolecular enzyme substrates” (priority 2003, published 2003).

In experiment [1] the target is T1, salivary amylase (Homo sapiens, UniProt P0DUB6).
T1 construct: purchased Sigma (St. Louis, Mo.)
T1 sequence (P0DUB6 16-511): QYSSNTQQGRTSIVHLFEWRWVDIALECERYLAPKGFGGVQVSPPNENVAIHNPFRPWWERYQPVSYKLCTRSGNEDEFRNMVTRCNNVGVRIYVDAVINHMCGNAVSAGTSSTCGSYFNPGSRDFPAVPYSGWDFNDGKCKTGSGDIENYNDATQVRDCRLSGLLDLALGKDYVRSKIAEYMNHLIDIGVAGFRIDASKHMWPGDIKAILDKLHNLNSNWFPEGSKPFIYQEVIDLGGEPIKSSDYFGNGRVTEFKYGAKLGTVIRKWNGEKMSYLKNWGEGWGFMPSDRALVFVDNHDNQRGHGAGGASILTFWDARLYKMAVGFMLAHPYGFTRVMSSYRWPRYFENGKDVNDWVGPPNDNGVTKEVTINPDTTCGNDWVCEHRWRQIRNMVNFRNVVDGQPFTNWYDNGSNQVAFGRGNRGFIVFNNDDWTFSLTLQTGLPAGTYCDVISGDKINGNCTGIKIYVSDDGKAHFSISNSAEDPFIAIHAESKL
Kind of experiment: Immunoinhibition by polyclonal antiamylase antisera, salivary amylase. The experiment is classed as biochemical. As for the experimental part: (§1) Amylase assays using oligosaccharide substrates were automated using a Cobas Fara analyzer (Roche, Basel, Switzerland). Unless indicated, assay temperature was 37° C., and absorbance changes were measured at 405 nm every minute over a 20 minute period. Assay buffer was either 52.5 mmol/L 4-(2-hydroxyethyl)-1-piperazine-ethanesulfonic acid (HEPES) buffer, pH 7.15, 87 mmol/L sodium chloride, 12.6 mmol/L magnesium chloride, 0.075 mmol/L calcium chloride (HEPES buffer) or 50 mmol/L MES, pH 6.0, 350 mmol/L sodium chloride, 6 mmol/L calcium acetate, 900 mmol/L KSCN (MES buffer). Amylases were diluted into assay buffer containing 1 mg/mL rabbit albumin. […] Unless indicated, final concentrations of MABs were 10 mg/L. Reaction blanks were determined by measuring the absorbance of substrate or enzyme alone at 405 nm. […] Differences between the test samples and reagent blanks were determined. Activity of stock solutions of amylase was based on activity measured with a Hitachi 917 analyzer using a Roche kit (Cat. No 1876473) (Indianapolis, Ind.) which uses EtG7pNP as the substrate. […]
(§2) The effects of two different polyclonal antiamylase immunoglobulin preparations on salivary and pancreatic amylase activity using mPEG-coupled and uncoupled substrates were tested. […] 100% amylase activity was determined in the absence of any antibody.

Experiment [2] addresses T2, pancreatic amylase (Homo sapiens, UniProt P04746).
T2 construct: purchased Scripps Laboratories (San Diego, Calif.)
T2 sequence (P04746 16-511): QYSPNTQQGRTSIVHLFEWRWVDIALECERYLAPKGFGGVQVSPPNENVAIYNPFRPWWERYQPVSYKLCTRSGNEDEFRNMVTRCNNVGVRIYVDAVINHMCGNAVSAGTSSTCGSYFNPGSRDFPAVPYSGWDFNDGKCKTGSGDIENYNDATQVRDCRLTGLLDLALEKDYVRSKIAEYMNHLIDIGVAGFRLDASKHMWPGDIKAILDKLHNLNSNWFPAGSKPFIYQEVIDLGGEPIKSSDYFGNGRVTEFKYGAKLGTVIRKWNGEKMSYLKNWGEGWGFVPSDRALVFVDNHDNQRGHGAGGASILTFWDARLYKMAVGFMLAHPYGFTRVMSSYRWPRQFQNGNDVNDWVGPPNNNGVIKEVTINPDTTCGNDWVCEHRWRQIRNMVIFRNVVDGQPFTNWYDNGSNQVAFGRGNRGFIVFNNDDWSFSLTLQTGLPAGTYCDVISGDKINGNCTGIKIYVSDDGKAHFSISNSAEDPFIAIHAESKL
Briefly: Amylase assay, Km determination, pancreatic amylase. It is filed as biochemical. As for the experimental part:
Amylase assays using oligosaccharide substrates were automated using a Cobas Fara analyzer (Roche, Basel, Switzerland). Unless indicated, assay temperature was 37° C., and absorbance changes were measured at 405 nm every minute over a 20 minute period. […] Amylases were diluted into assay buffer containing 1 mg/mL rabbit albumin. Final reaction volumes were 200 μL and consisted of 3 solutions, R1, R2, and R3. […] Depending upon the assay, R2 and R3 contained either amylase or substrate. R1 and R2 solutions were mixed for 10 seconds prior to the addition of R3. For immunoinhibition studies, antibodies were preincubated with amylase (R2) for 30 minutes at room temperature prior to the addition of substrate (R3). Unless indicated, final concentrations of MABs were 10 mg/L. Reaction blanks were determined by measuring the absorbance of substrate or enzyme alone at 405 nm. When EtG7pNP or mPEG-EtG7pNP were used as substrates, α-glucosidase was included in the blank measurement. Differences between the test samples and reagent blanks were determined. Activity of stock solutions of amylase was based on activity measured with a Hitachi 917 analyzer using a Roche kit (Cat. No 1876473) (Indianapolis, Ind.) which uses EtG7pNP as the substrate. For Km determinations, 4 or 5 different substrate concentrations (0.05 mmol/L to 6 mmol/L) with salivary (4-20 U/L) or pancreatic (4-40 U/L) amylase were used.

Experiment [3] addresses T2, pancreatic amylase. Briefly: Immunoinhibition by polyclonal antiamylase antisera, pancreatic amylase. It is filed as biochemical. On the procedure:
as §1, §2

Experiment [4] concerns the target T1, salivary amylase. Briefly: Immunoinhibition by MABs, salivary amylase, oligosaccharide substrates. The experiment is classed as biochemical. The conditions noted are these: salivary isoenzyme, 20 U/I (G5, G7 substrates) or 600 U/I (G3 substrates), 100% = no MAB; for % activity with MAB 66C7 / % activity with MAB 88E8: MAB 10 mg/L. On the procedure: (§3) Amylase assays using oligosaccharide substrates were automated using a Cobas Fara analyzer (Roche, Basel, Switzerland). Unless indicated, assay temperature was 37° C., and absorbance changes were measured at 405 nm every minute over a 20 minute period. Assay buffer was either 52.5 mmol/L 4-(2-hydroxyethyl)-1-piperazine-ethanesulfonic acid (HEPES) buffer, pH 7.15, 87 mmol/L sodium chloride, 12.6 mmol/L magnesium chloride, 0.075 mmol/L calcium chloride (HEPES buffer) or 50 mmol/L MES, pH 6.0, 350 mmol/L sodium chloride, 6 mmol/L calcium acetate, 900 mmol/L KSCN (MES buffer). Amylases were diluted into assay buffer containing 1 mg/mL rabbit albumin. Final reaction volumes were 200 μL and consisted of 3 solutions, R1, R2, and R3. […] Depending upon the assay, R2 and R3 contained either amylase or substrate. R1 and R2 solutions were mixed for 10 seconds prior to the addition of R3. For immunoinhibition studies, antibodies were preincubated with amylase (R2) for 30 minutes at room temperature prior to the addition of substrate (R3). Unless indicated, final concentrations of MABs were 10 mg/L. Reaction blanks were determined by measuring the absorbance of substrate or enzyme alone at 405 nm. When EtG7pNP or mPEG-EtG7pNP were used as substrates, α-glucosidase was included in the blank measurement. Differences between the test samples and reagent blanks were determined. Activity of stock solutions of amylase was based on activity measured with a Hitachi 917 analyzer using a Roche kit (Cat. No 1876473) (Indianapolis, Ind.) which uses EtG7pNP as the substrate. For Km determinations, 4 or 5 different substrate concentrations (0.05 mmol/L to 6 mmol/L) with salivary (4-20 U/L) or pancreatic (4-40 U/L) amylase were used.
When both MABs were used, MAB 88E8 concentrations were varied in the presence of 10 mg/L MAB 66C7. At an antibody concentration of 10 mg/L, MAB 88E8 inhibits 98% of salivary amylase activity in HEPES buffer and 34% of salivary amylase activity in MES buffer. MAB 66C7 increases salivary amylase activity in HEPES buffer and has no effect on salivary amylase activity in MES buffer. Using a mixture of MABs 88E8 and 66C7 at concentrations of […], >99% of salivary amylase activity is inhibited in HEPES buffer and 73% of salivary amylase activity is inhibited in MES buffer. When the pH of the MES buffer was increased from 6.0 to 6.5 and the concentration of KSCN was decreased from 900 mmol/L to 300 mmol/L, >97% of salivary amylase activity was inhibited by MAB 88E8.

Experiment [5] addresses T1, salivary amylase. Briefly: Amylase assay, Km determination, salivary amylase. It is filed as biochemical. As for the experimental part: as §3
Experiment [6] deals with T1, salivary amylase. Kind of experiment: Extent of cleavage of substrates by excess salivary amylase. The experiment is classed as biochemical. As for the experimental part:
Substrates were diluted into HEPES buffer and absorbances were recorded between 250 nm and 500 nm. To determine the maximum amount of substrate that could be cleaved with amylase, substrates were incubated with 60 units/mL of salivary amylase. When EtG7pNP and mPEG-EtG7pNP were used, 4 units/mL of α-glucosidase were included in the incubation.
To determine the maximal amount of mPEG-coupled and uncoupled substrate that could be cleaved by amylase, substrates were incubated with excess salivary amylase and the amount of free chromophore released was determined by measuring absorptions between 250 nm and 500 nm during amylase digestion. […] Incubations were monitored until endpoints of reactions were approached. α-Glucosidase was included in the incubation when EtG7pNP and mPEG-EtG7pNP were used as substrates.

The target of experiment [7] is T2, pancreatic amylase. Kind of experiment: Immunoinhibition by MABs, pancreatic amylase, oligosaccharide substrates. The conditions noted are these: pancreatic isoenzyme, 40 U/I (G5, G7 substrates) or 400 U/I (G3 substrates), 100% = no MAB; for % activity with MAB 66C7 / % activity with MAB 88E8: MAB 10 mg/L. The experiment is classed as biochemical. As for the experimental part: as §3

The subject of experiment [8] is pancreatic and salivary amylase. Briefly: Lag phase of amylase reaction. The conditions noted are these: purified pancreatic and salivary amylase; Cobas Fara analyzer. It is filed as biochemical, human. As for the experimental part: as §1, with “albumin. Final reaction volumes were 200 μL and consisted of 3 solutions, R1, R2, and R3. […] Depending upon the assay, R2 and R3 contained either amylase or substrate. R1 and R2 solutions were mixed for 10 seconds prior to the addition of R3.” for “albumin.”

Setting [9] is: 37° C., pH 6.5 in MES buffer containing 300 mM KSCN.

For `CC1OC[C@H]2O[C@H](O[C@H]3[C@H](O)[C@@H](O)[C@@H](O[C@H]4[C@H](O)[C@@H](O)[C@@H](O[C@H]5[C@H](O)[C@@H](O)[C@@H](O[C@H]6[C@H](O)[C@@H](O)[C@@H](O[C@H]7[C@H](O)[C@@H](O)[C@@H](O[C@H]8[C@H](O)[C@@H](O)[C@@H](Oc9ccc([N+](=O)[O-])cc9)O[C@@H]8CO)O[C@@H]7CO)O[C@@H]6CO)O[C@@H]5CO)O[C@@H]4CO)O[C@@H]3CO)[C@H](O)[C@@H](O)[C@@H]2O1` (stereo partly drawn) [EtG7pNP, 4,6-O-ethylidene p-nitrophenyl-α-D-maltoheptaoside], the “Fold lower concentration of antibody inhibiting cleavage than for G3ClpNP” value is > 50 fold on salivary amylase [1] and ~3 fold at pancreatic amylase [3]. The Michaelis-Menten constant (Km) at pancreatic amylase [2] (37° C., HEPES buffer pH 7.15) was 170 µM; on salivary amylase [5] (37° C., HEPES buffer pH 7.15), 130 µM. In addition, the “% activity with MAB 88E8 + 66C7” value was 2% on salivary amylase [4] and 96% on pancreatic amylase [7]. The “% activity with MAB 66C7” value at salivary amylase [4] and on pancreatic amylase [7] was 105% each time. The entries for the “% activity with MAB 88E8” value on salivary amylase [4] and at pancreatic amylase [7] were 6% and 96%, respectively. The “Substrate cleaved by salivary amylase and α-glucosidase” value at salivary amylase [6] (digestion for 60 minutes) was ~90%.

Take `O=[N+]([O-])c1ccc(O[C@H]2O[C@H](CO)[C@@H](O[C@H]3O[C@H](CO)[C@@H](O[C@H]4O[C@H](CO)[C@@H](O)[C@H](O)[C@H]4O)[C@H](O)[C@H]3O)[C@H](O)[C@H]2O)c(Cl)c1` [Substrate G3ClpNP, 2-chloro-p-nitrophenol-α-D-maltotrioside]: the Km on pancreatic amylase [2] (25° C., HEPES buffer pH 7.15) turned out to be 1300 µM; on pancreatic amylase [2] (37° C., HEPES buffer pH 7.15), 2200 µM; at pancreatic amylase [2] (setting [9]) it was 610 µM; on salivary amylase [5] (25° C., HEPES buffer pH 7.15), 4600 µM; at salivary amylase [5] (37° C., HEPES buffer pH 7.15) it was 6900 µM; at salivary amylase [5] (setting [9]) it was 2000 µM. Further, the “% activity with MAB 88E8 + 66C7” value at salivary amylase [4] was 1%; on pancreatic amylase [7], 103%. In addition, the “% activity with MAB 66C7” value is reported as 104% at salivary amylase [4] and 117% at pancreatic amylase [7]. For the same compound, the “% activity with MAB 88E8” value at salivary amylase [4] was determined as 3%; on pancreatic amylase [7], 103%. Also, the “CNP released by salivary amylase” value at salivary amylase [6] (excess salivary amylase, 40 minutes at room temperature) is ~90%. Besides, in experiment [8], the “Lag phase, time to reach maximal rates” value is “little or no lag phase”.

One may read the Km as the substrate concentration at which the rate is half of its maximum.
